Laboratory results reported in BigSolDB 2.1.

CC1=NN(c2ccccc2)C(=O)C1
solubility (mole fraction)
Settings | 283.15 K | 288.15 K | 293.15 K | 298.15 K | 303.15 K | 308.15 K | 313.15 K | 318.15 K | 323.15 K | 328.15 K
in 1,2-dichloroethane | 0.0262 | 0.0304 | 0.0358 | 0.0417 | 0.0496 | 0.058 | 0.0676 | 0.0767 | 0.089 | –
in 2-butanone | 0.02 | 0.024 | 0.0313 | 0.0372 | 0.0437 | 0.0557 | 0.0678 | 0.081 | 0.121 | –
in MIBK | 0.0107 | 0.0138 | 0.0198 | 0.0243 | 0.0311 | 0.0365 | 0.0414 | 0.0495 | 0.0609 | –
in dimethyl carbonate | 0.0118 | 0.0138 | 0.0166 | 0.0201 | 0.0257 | 0.0316 | 0.0384 | 0.0458 | 0.0573 | –
in ethyl lactate | 0.0293 | 0.0319 | 0.0352 | 0.0392 | 0.0424 | 0.0486 | 0.0531 | 0.0594 | 0.0735 | –
in isobutyl acetate | – | 0.0109 | 0.0123 | 0.0142 | 0.0162 | 0.0192 | 0.0229 | 0.0268 | 0.0309 | 0.0367
in isopentanol | 0.0191 | 0.021 | 0.023 | 0.0261 | 0.0282 | 0.0312 | 0.0353 | 0.0403 | 0.0466 | –
in isopropyl acetate | 0.00972 | 0.0117 | 0.0141 | 0.0162 | 0.0187 | 0.0223 | 0.0265 | 0.032 | 0.036 | –
in methyl acetate | 0.0161 | 0.0182 | 0.0201 | 0.0237 | 0.0266 | 0.0299 | 0.0349 | 0.0422 | 0.0477 | –
in n-butyl acetate | 0.0124 | 0.0142 | 0.0164 | 0.0195 | 0.0227 | 0.0265 | 0.0305 | 0.037 | 0.0423 | –
in n-hexane | 0.000173 | 0.000226 | 0.000394 | 0.00052 | 0.000662 | 0.000963 | 0.00136 | 0.00172 | 0.00211 | –
in n-propyl acetate | 0.0142 | 0.0169 | 0.0197 | 0.0228 | 0.0276 | 0.0318 | 0.0384 | 0.0451 | 0.0551 | –
